Results on 37 molecules are retold here after patent US5637731A (priority 1996, dated 1997).

The subject of series [1] is peripheral acetylcholine-like effects. The experiment in a line: Side effect profile: in vivo overt effects (salivation, tremor, diarrhea) after oral administration. Further details: species or system rat. The source says:
The use of the radioligand binding assays (^3 H-QNB and ^3 H-CD) to characterize the hydroxylated oxotremorine derivatives provides a useful first approximation for,the evaluation of the muscarinic agonist-like profile of a test compound. However, in using a prodrug methodology, intrinsic activity will not be observed until in vivo hydrolysis or metabolism to the active compound occurs. Therefore, radioligand binding data, performed on the carbonyl derivatives, will not provide leading information. As a result, the observed overt effects after oral administration to rats of the test carbonyl derivative, relative to its corresponding hydroxylated oxotremorine compound, became the primary in vivo pharmacological measure. These in vivo overt effects are attributed to the peripheral acetylcholine-like effects of the compound, such as salivation, tremor and diarrhea. The in vivo overt effects also providing dosing information for the behavioral tests of cognitive improvement.

Series [2] has as its target muscarinic cholinergic receptor. The experiment in a line: [^3 H]-Cis-methyldioxolane (^3 H-CD) Binding Assay (High Affinity). The note with it: rat cerebral cortex, ^3 H-CD 1.0 nM, 25° C., 120 minutes, pH 7.4; high affinity agonist binding.
Series [3] shares this target. The class given is binding, rat. The note with it: rat cerebral cortex, ^3 H-QNB 0.25 nM, 25° C., 120 minutes, pH 7.4.

“And” between values parts separate entries of the source, which are not always exact repeats. Equal entries are not always repeated. Structures can show the parent of a compound that is named as a salt. Where two headings read alike, the source gives them in different places. A value given as a limit tells only on which side of the number the result lay.

With `CCNC(=O)O[C@@H]1CCN(CC#CCN2CCCC2)C1=O` [(R)-Ethylcarbamic acid 2-oxo-1-[4-(1-pyrrolidinyl)-2-butynyl]-3-pyrrolidinyl ester], the “Side Effect Profile minimum effective dose (MED)” value in series [1] ((rat) po) stood at 28 μ mol/kg. The same measure, in the same setting: the result for `CCCCNC(=O)O[C@H]1CCN(CC#CCN(C)C)C1=O` [(S)-Butylcarbamic acid 1-[4-(dimethylamino)-2-butynyl]-2-oxo-3-pyrrolidinyl ester] reads over 493 μ mol/kg; that for `CCCCNC(=O)O[C@@H]1CCN(CC#CCN(C)C)C1=O` [(R)-Butylcarbamic acid 1-[4-(dimethylamino)-2-butynyl]-2-oxo-3-pyrrolidinyl ester], over 340 μ mol/kg; that for `CCNC(=O)O[C@H]1CCN(CC#CCN2CCCC2)C1=O` [(S)-Ethylcarbamic acid 2-oxo-1-[4-(1-pyrrolidinyl)-2-butynyl]-3-pyrrolidinyl ester], over 490 μ mol/kg. Turning to `CCOC(=O)O[C@@H]1CCN(CC#CCN(C)C)C1=O` [(R)-1-[4-(Dimethylamino)-2-butynyl]-2-oxo-3-pyrrolidinyl carbonic acid ethyl ester], the “Side Effect Profile minimum effective dose (MED)” value in series [1] ((rat) po) was 127 μ mol/kg and 254 μ mol/kg; in series [1] ((rat) po; listed as R)-1-[4-(Dimethylamino)-2-butynyl]-2-oxo-3-pyrrolidinyl carbonic acid ethyl este) it was 258 μ mol/kg. Regarding `CCCCCC(=O)O[C@@H]1CCN(CC#CCN(C)C)C1=O` [(R)-Hexanoic acid 1-[4-(dimethylamino)-2-butynyl]-2-oxo-3-pyrrolidinyl ester], in series [1] ((rat) po), the “Side Effect Profile minimum effective dose (MED)” value came out at 255 μ mol/kg.

For the molecule `CCCCCCCC(=O)O[C@H]1CCN(CC#CCN(C)C)C1=O` [(S)-Octanoic acid 1-[4-(dimethylamino)-2-butynyl]-2-oxo-3-pyrrolidinyl ester], the “Side Effect Profile minimum effective dose (MED)” value in series [1] ((rat) po) amounted to 8.0 μ mol/kg. On the same count and under the same terms, the result for `CCCCCCCCOC(=O)O[C@H]1CCN(CC#CCN2CCCC2)C1=O` [(S)-2-Oxo-1-[4-(1-pyrrolidinyl)-2-butynyl]-3-pyrrolidinyl carbonic acid octyl ester] reads 28 μ mol/kg. For the molecule `CCCCCC(=O)O[C@H]1CCN(CC#CCN2CCCC2)C1=O` [(S)-Hexanoic acid 2-oxo-1-[4-(1-pyrrolidinyl)-2-butynyl]-3-pyrrolidinyl ester], the “Side Effect Profile minimum effective dose (MED)” value in series [1] ((rat) po) came out at 1.8 μ mol/kg.

Take `CCCCNC(=O)O[C@@H]1CCN(CC#CCN2CCCC2)C1=O` [(R)-Butylcarbamic acid 2-oxo-1-[4-(1-pyrrolidinyl)-2-butynyl]-3-pyrrolidinyl ester]: the “Side Effect Profile minimum effective dose (MED)” value in series [1] ((rat) po) is given as over 243 μ mol/kg.

On to `CCCCCCNC(=O)O[C@@H]1CCN(CC#CCN(C)C)C1=O` [(R)-Hexylcarbamic acid 1-[4-(dimethylamino)-2-butynyl]-2-oxo-3-pyrrolidinyl ester], for which the “Side Effect Profile minimum effective dose (MED)” value in series [1] ((rat) po) is given as over 530 μ mol/kg. For the molecule `CCCCCCNC(=O)O[C@H]1CCN(CC#CCN2CCCC2)C1=O` [(S)-Hexylcarbamic acid 2-oxo-1-[4-(1-pyrrolidinyl)-2-butynyl]-3-pyrrolidinyl ester], in series [1] ((rat) po), the “Side Effect Profile minimum effective dose (MED)” value was over 450 μ mol/kg. On the same count and under the same terms, the figure for `CCCCOC(=O)O[C@H]1CCN(CC#CCN2CCCC2)C1=O` [(S)-2-Oxo-1-[4-(1-pyrrolidinyl)-2-butynyl]-3-pyrrolidinyl carbonic acid butyl ester] is 0.9 μ mol/kg; for `CCCC(=O)O[C@@H]1CCN(CC#CCN(C)C)C1=O` [(R)-Butanoic acid 1-[4-(dimethylamino)-2-butynyl]-2-oxo-3-pyrrolidinyl ester] it is 127 μ mol/kg. On the same count and under the same terms, the figure for `CCCCCCNC(=O)O[C@H]1CCN(CC#CCN(C)C)C1=O` [(S)-Hexylcarbamic acid 1-[4-(dimethylamino)-2-butynyl]-2-oxo-3-pyrrolidinyl ester] is over 510 μ mol/kg. In the case of `CCCCOC(=O)O[C@@H]1CCN(CC#CCN2CCCC2)C1=O` [(R)-2-Oxo-1-[4-(1-pyrrolidinyl)-2-butynyl]-3-pyrrolidinyl carbonic acid butyl ester], the “Side Effect Profile minimum effective dose (MED)” value in series [1] ((rat) po) is 14 μ mol/kg. For the molecule `CCCCCCCCNC(=O)O[C@H]1CCN(CC#CCN(C)C)C1=O` [(S)-Octylcarbamic acid 1-[4-(dimethylamino)-2-butynyl]-2-oxo-3-pyrrolidinyl ester], in series [1] ((rat) po), the “Side Effect Profile minimum effective dose (MED)” value is over 520 μ mol/kg. `CCCCCCCCCC(=O)O[C@H]1CCN(CC#CCN2CCCC2)C1=O` [(S)-Decanoic acid 2-oxo-1-[4-(1-pyrrolidinyl)-2-butynyl]-3-pyrrolidinyl ester]: the “Side Effect Profile minimum effective dose (MED)” value in series [1] ((rat) po) was 14 μ mol/kg.

For the molecule `CCNC(=O)O[C@H]1CCN(CC#CCN(C)C)C1=O` [(S)-Ethylcarbamic acid 1-[4-(dimethylamino)-2-butynyl]-2-oxo-3-pyrrolidinyl ester], the “Side Effect Profile minimum effective dose (MED)” value in series [1] ((rat) po) is recorded as over 510 μ mol/kg.

In the case of `CC(C)(C)[Si](C)(C)OC[C@@H]1CCCN1CC#CCN1CC[C@H](O)C1=O` [[S-(R*,R*)]-1-[4-[2-[[[(1,1-Dimethylethyl)dimethylsilyl]-oxy]methyl]-1-pyrrolidinyl]-2-butynyl]-3-hydroxy-2-pyrrolidinone], the figures for the Ki in series [2] and in series [3] were 0.14 µM and 0.4 µM, respectively.

`NCC#CCN1CCCC1` [4-(1-Pyrrolidinyl)-2-butyn-1-amine dihydrochloride]: the results for the Ki in series [2] and in series [3] were 13 µM and over 100 µM, respectively. For `CC(=O)O[C@H]1CCN(CC#CCN(C)CCO)C1=O` [(S)-3-(Acetyloxy)-1-[4-[2-(hydroxyethyl)methylamino]-2-butynyl]-2-pyrrolidinone], the Ki (commonly a measure of affinity in units of concentration, obtained from inhibition or displacement) in series [2] was 16.2 µM; in series [3] it was over 100 µM. In the same order, the values of `CCN(CC)CC#CCN` [N,N-Diethyl-2-butyne-1,4-diamine dihydrochloride] are over 100 µM and over 100 µM.

With `CN(CC#CCN1CC[C@@H](O)C1=O)CCO` [(R)-3-Hydroxy-1-[4-[(2-hydroxyethyl)methylamino]-2-butynyl]-2-pyrrolidinone], the Ki was 1.8 µM in series [2] and over 100 µM in series [3]. For `CCCCCCCCCC(=O)O[C@H]1CCN(CC#CCN(C)C)C1=O` [(S)-Decanoic acid 1-[4-(dimethylamino)2-butynyl]-2-oxo-3-pyrrolidinyl ester], in that order: 0.023 µM and 0.6 µM. For `CC(C)(C)[Si](C)(C)OC[C@@H]1CCCN1CC#CCNC(=O)C(F)(F)F` [(S)-N-[4-[2-[[[(1,1-Dimethylethyl]-dimethylsilyl]oxy]-methyl]-1-pyrrolidinyl]-2-butynyl]-2,2,2-trifluoroacetamide], in that order: 41.4 µM and over 100 µM. Turning to `CC(=O)O[C@H]1CCN(CC#CCN2CCC[C@@H]2CO[Si](C)(C)C(C)(C)C)C1=O` [[S-(R*,S*)]-3-(Acetyloxy)-1-[4-(2-[[[(1,1-dimethylethyl)dimethylsilyl]oxy]methyl]-1-pyrrolidinyl]-2-butynyl]-2-pyrrolidinone], the values for the Ki in series [2] and in series [3] were 4.2 µM and over 100 µM, respectively. Consider `[N-]=[N+]=N[C@H]1CCN(CC#CCN2CCCC2)C1=O` [(S)-3-Azido-1-[4-(1-pyrrolidinyl)-2-butynyl]-2-pyrrolidinone], for which the Ki worked out at 0.16 µM in series [2] and 3.14 µM in series [3]. Consider `C[C@H]1CCN(CC#CCN(C)C)C1=O` [(S)-1-[4-(Dimethylamino)-2-butynyl]-3-methyl-2-pyrrolidinone], for which the Ki in series [2] was determined as 0.68 µM; in series [3], 35.5 µM.

In the case of `CN(C)CC#CCN1CC[C@@H](N=[N+]=[N-])C1=O` [(R)-3-Azido-1-[4-(dimethylamino)-2-butynyl]-2-pyrrolidinone], the figures for the Ki in series [2] and in series [3] were 0.5 µM and over 100 µM, respectively. For `CN(C)CC#CCN1CCC(C)(O)C1=O` (racemic) [Racemic-1-[4-Dimethylamino)-2-butynyl]-3-hydroxy-3-methyl-2-pyrrolidinone, Racemic 1-[4-(Dimethylamino)-2-butynyl]-3-hydroxy-3-methyl-2-pyrrolidinone], in that order: over 100 µM and over 100 µM. For `CCCCCCCCOC(=O)O[C@H]1CCN(CC#CCN(C)C)C1=O` [(S)-Carbonic acid 1-[4-(dimethylamino)-2-butynyl]-2-oxo-3-pyrrolidinyl octyl ester], in that order: 0.306 µM and 10 µM. Turning to `CCN(CC)CC#CCNC(=O)C(F)(F)F` [N-[4-(Diethylamino)-2-butynyl]-2,2,2-trifluoroacetamide monohydrochloride], the Ki in series [2] was 4.07 µM; in series [3], over 100 µM. In the same order, the values of `CN(C)CC#CCN1CC[C@H](N=[N+]=[N-])C1=O` [(S)-3-Azido-1-[4-(dimethylamino)-2-butynyl]-2-pyrrolidinone] are 0.63 µM and over 100 µM. For `N[C@H]1CCN(CC#CCN2CCCC2)C1=O` [(S)-3-Amino-1-[4-(1-pyrrolidinyl)-2-butynyl]-2-pyrrolidinone dihydrochloride], in that order: 0.41 µM and 73.6 µM.

Turning to `CC(C)(C)[Si](C)(C)OC[C@@H]1CCCN1CC#CCN1CC[C@@H](O)C1=O` [[R-(R*,S*)]-1-[4-[2-[[[(1,1-dimethylethyl)dimethylsilyl]oxy]methyl]-1-pyrrolidinyl]-2-butynyl]-3-hydroxy-2-pyrrolidone], the values for the Ki in series [2] and in series [3] were 0.47 µM and 0.5 µM, respectively. For `CC(=O)O[C@@H]1CCN(CC#CCN(C)CCO)C1=O` [(R)-3-(Acetyloxy)-1-[4-[2-(hydroxyethyl)methylamino]-2-butynyl]-2-pyrrolidinone], in that order: 28.3 µM and over 100 µM.
